These antisense oligonucleotides have a phosphorothioate backbone; sugars and methylation of C are not fully specified.
Assays:
GNA13 = conditions: ASO
E2F1 = conditions: ASO
Further: test concentration or dose not given here.

| Sequence | remaining target (mRNA or protein) (fraction of control) (GNA13) | remaining target (mRNA or protein) (fraction of control) (E2F1) |
| --- | --- | --- |
| AAAAGATATTAAAACAGC | ≥ 1 |  |
| AAAGTCGTATTCATGGAT | ≥ 1 |  |
| AACAGATCAAAGCCTGCA | 0.64 |  |
| AACCCCACACCCCTCCTCCC |  | 0.86 |
| AACCTTTAAGACAGAAGTGC |  | 0.74 |
| AAGCAAGTCTGTCTTGTT | 0.79 |  |
| AAGCATTTTGAAAGGAAC | ≥ 1 |  |
| AAGCCCTGTCAGAAATCCAG |  | 0.58 |
| AAGCCTCCCCACCTGGCCTG |  | 0.28 |
| AAGGTGGACTTGCCGCTC | 0.24 |  |
| AAGTCCCGGCCACGGAATTC |  | 0.87 |
| AAGTGGTAGTCGAGGGCCTC |  | 0.77 |
| AATATTTTACAGATTCAC | ≥ 1 |  |
| AATTCTGGTTGTAAACTG | ≥ 1 |  |
| ACACACACATGCTCACACAC |  | 0.56 |
| ACACCACACAGACTCCTTCC |  | 0.6 |
| ACCCAGTTGAAATTCTCG | 0.43 |  |
| ACCCTCATACCTTTGATC | 0.09 |  |
| ACCTACGGTCTCCTCAGGGC |  | 0.21 |
| ACCTCGGCAGCCCAGTTCAG |  | ≥ 1 |
| ACGACATCATCTTATCTC | 0.39 |  |
| ACTAAGATTTTCAAGAAG | 0.61 |  |
| ACTCGTCAGCAGGCAGCC | ≥ 1 |  |

| Sequence | remaining target (mRNA or protein) (fraction of control) (GNA13) | remaining target (mRNA or protein) (fraction of control) (E2F1) |
| --- | --- | --- |
| AGAACAGAATTATGGAGA | 0.31 |  |
| AGAAGTCCTCCCGCACATGC |  | 0.51 |
| AGCACACGGACAGCACGG | 0.51 |  |
| AGCAGCAGGATCTTCACC | 0.54 |  |
| AGGAAGCGCTTGGTGGTCAG |  | 0.72 |
| AGGGACCCCTGCCCTTGCTC |  | 0.23 |
| AGGTCTCTGATGCCCTCGCC |  | 0.53 |
| AGTCCGCCATCTTGCCGC | ≥ 1 |  |
| AGTGGTGAAGTGGTGGTA | 0.43 |  |
| ATATGAAGCTTCTCTCGA | 0.42 |  |
| ATATTGTAAGAAAACCCT | ≥ 1 |  |
| ATGAGCTGGATGCCCTCAAG |  | 0.56 |
| ATGTCATAGATGCGCCGCTT |  | 0.77 |
| ATGTTCTCCGTGTTGATA | 0.67 |  |
| CAAATCTTGGCGATGAGT | 0.31 |  |
| CAATTTGCACCTTCTCCT | 0.29 |  |
| CACACGGACAGCACGGAC | 0.77 |  |
| CACAGGAAAACATCGATCGG |  | 0.9 |
| CACCCAGGCCTCAGTTCCTT |  | 0.92 |
| CACCGTCCTACACGCCCAGC |  | 0.44 |
| CACCTTTTCCTGGATGGCGG |  | 0.47 |
| CACTTGAGGAAACAAGGA | 0.38 |  |
| CAGCTGCTGCTCGCTCTCCT |  | 0.63 |

| Sequence | remaining target (mRNA or protein) (fraction of control) (GNA13) | remaining target (mRNA or protein) (fraction of control) (E2F1) |
| --- | --- | --- |
| CAGCTTTCAGCCACAAAC | 0.99 |  |
| CAGGCGGCGGCGGCGGCGCG |  | 0.82 |
| CATAAGCACCTGGTCAAA | 0.1 |  |
| CATAGGTCTTTTCCCGAG | 0.52 |  |
| CATCTGCTTCAGGAAGGT | 0.55 |  |
| CATCTTGCCGCCGCCGCC | 0.99 |  |
| CCACTCACCTCTCCCATCTC |  | 0.72 |
| CCCATGGCTGTCAGTCAGTC |  | ≥ 1 |
| CCCGTGGATGATCCGCAT | ≥ 1 |  |
| CCGCCGCCTCGCCGCCTC | 0.33 |  |
| CCGCTGCCTGCAAAGTCCCG |  | 0.92 |
| CCGCTGTCTGCCCATAAT | 0.08 |  |
| CCTCGGCGAGGGCTCGATCC |  | 0.8 |
| CCTTGTTTCCACCATTCC | 0.07 |  |
| CGAGACAGGCATTTGTCG | ≥ 1 |  |
| CGAGCAGGGCCTCCAGCGCC |  | 0.9 |
| CGATCGGGCCTTGTTTGCTC |  | 0.72 |
| CGATTGGTCAGTCGATCT | ≥ 1 |  |
| CGCAGCTGCGTAGTACAGAT |  | ≥ 1 |
| CGCCTCGCCGCCTCTCCG | 0.75 |  |
| CGCGCCCAGCAGCAGGAT | 0.75 |  |
| CGCGGCGGAGATGATGACGA |  | ≥ 1 |
